From PMC12397098, “3-Monothiopomalidomide, a new immunomodulatory imide drug (IMiD), blunts inflammation and mitigates ischemic stroke in the rat” (GeroScience, 2025) come the findings set out here.

Data set [1] is described as follows: 3-MP nanosuspension time-dependent stability (LC-MS). The class given is physicochemical. As for the experimental part: Thalidomide, pomalidomide, and most related analogues have poor aqueous solubility. As a consequence, to aid biological evaluation, a 3-MP nanosuspension was prepared in line with our prior study. Specifically, the drug was mixed in an aqueous solution (Tween 80/water) and vortexed for 10 min. The coarse drug suspension was then placed in Eppendorf microtubes containing approximately 0.4 g of 0.1–0.2 mm yttrium-stabilized zirconia-silica beads (Silibeads® Typ ZY Sigmund Lindner, Germany). These were vortexed twice, at 3000 rpm for 45 min, using a beads-milling cell disruptor (Disruptor Genie®, Scientific Industries, USA). […] To evaluate the stability of the 3-MP nanosuspension, a vial (241 μM, 4 °C) was time-dependently sampled over a 98-day period, and the drug was quantified by LC–MS (see Supplementary information). […]
Nanoformulation LC/MS Assays: A rudimentary assay was devised to assess the relative stability of nanoformulated 3-MP. In short, a sample of nanoformulated 3-MP was monitored for degradation until, roughly, 10% of the original material was lost due to hydrolysis and other such factors. […] These samples were immediately analyzed. […] The areas of the ensuing UV peaks detected at 254nm served as the basis for analysis, and the stock nanoformulation was monitored as a function of derivation from the 3-MP nanoformulation t=0 area (defined as “100% Area Percent” in the initial trace). […]

In data set [2] the target is Benzodiazepine BZP receptor. In words: PDSP radioligand binding. As to conditions: read-out: 3-MP concentration required to induce 50% inhibition of PDSP radioligand binding. As for the experimental part: (§1) To evaluate potential binding at classical neurological drug targets, 3-MP and 3,6’-DP were submitted to the National Institute on Mental Health (NIMH) Psychoactive Drug Screening Program (PDSP: Univ. N Carolina, Chapel Hill, NC, USA < https://pdspdb.unc.edu/pdspweb/ >) as powdered samples in the provided vials. The materials were then prepared at the PDSP in 10% DMSO, subjected to multiple assay screens, and processed as per the PDSP Assay Protocol Book (Version 3, March 2018). Compounds that exceeded an initial 10 uM binding threshold were then delegated for secondary dose–response analysis. This screen comprised a 45-target comprehensive panel of common brain receptor and transporter drug targets.

The target in a further data set is κ-opioid receptor (Homo sapiens, UniProt P41145). Kind of data set: PDSP radioligand binding. Conditions: read-out: 3-MP concentration required to induce 50% inhibition of PDSP radioligand binding. Here is the method: as §1
The next data set deals with T1, Serotonin 5-HT6 receptor (Homo sapiens, UniProt P50406).
T1 construct: NIMH Psychoactive Drug Screening Program (PDSP)
In words: PDSP radioligand binding. Conditions: read-out: 3-MP concentration required to induce 50% inhibition of PDSP radioligand binding. Here is the method: as §1

A further data set has as its target T2, Dopamine D2 receptor (Homo sapiens, UniProt P14416).
T2 construct: NIMH Psychoactive Drug Screening Program (PDSP)
In words: PDSP radioligand binding. Conditions: read-out: 3-MP concentration required to induce 50% inhibition of PDSP radioligand binding. As for the experimental part:
as §1

Another data set concerns the target Dopamine D3 receptor (Homo sapiens, UniProt P35462). In words: PDSP radioligand binding. Conditions: read-out: 3-MP concentration required to induce 50% inhibition of PDSP radioligand binding. Here is the method: as §1

Chain of κ-opioid receptor (P41145 whole entry): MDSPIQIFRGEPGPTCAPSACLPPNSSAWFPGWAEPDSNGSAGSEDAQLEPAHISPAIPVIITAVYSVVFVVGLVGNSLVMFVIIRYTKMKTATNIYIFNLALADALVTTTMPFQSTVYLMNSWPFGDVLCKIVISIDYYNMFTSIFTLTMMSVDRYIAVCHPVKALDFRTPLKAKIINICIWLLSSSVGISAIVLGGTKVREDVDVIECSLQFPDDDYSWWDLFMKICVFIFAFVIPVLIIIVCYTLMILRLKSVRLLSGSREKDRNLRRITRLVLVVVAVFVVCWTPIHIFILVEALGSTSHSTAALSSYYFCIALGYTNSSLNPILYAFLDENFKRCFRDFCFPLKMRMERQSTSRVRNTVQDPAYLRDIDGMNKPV
Chain of Dopamine D3 receptor (P35462 whole entry): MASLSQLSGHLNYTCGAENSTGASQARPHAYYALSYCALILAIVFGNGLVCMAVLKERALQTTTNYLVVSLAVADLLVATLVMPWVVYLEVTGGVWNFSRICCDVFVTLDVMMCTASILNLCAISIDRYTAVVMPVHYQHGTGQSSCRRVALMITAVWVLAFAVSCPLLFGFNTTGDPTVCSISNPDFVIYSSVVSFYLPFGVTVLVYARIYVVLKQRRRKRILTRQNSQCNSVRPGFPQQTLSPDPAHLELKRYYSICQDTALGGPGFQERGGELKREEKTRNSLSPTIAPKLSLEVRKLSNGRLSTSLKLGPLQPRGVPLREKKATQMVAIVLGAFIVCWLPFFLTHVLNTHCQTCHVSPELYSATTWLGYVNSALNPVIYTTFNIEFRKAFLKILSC
T2 sequence (P14416 whole entry): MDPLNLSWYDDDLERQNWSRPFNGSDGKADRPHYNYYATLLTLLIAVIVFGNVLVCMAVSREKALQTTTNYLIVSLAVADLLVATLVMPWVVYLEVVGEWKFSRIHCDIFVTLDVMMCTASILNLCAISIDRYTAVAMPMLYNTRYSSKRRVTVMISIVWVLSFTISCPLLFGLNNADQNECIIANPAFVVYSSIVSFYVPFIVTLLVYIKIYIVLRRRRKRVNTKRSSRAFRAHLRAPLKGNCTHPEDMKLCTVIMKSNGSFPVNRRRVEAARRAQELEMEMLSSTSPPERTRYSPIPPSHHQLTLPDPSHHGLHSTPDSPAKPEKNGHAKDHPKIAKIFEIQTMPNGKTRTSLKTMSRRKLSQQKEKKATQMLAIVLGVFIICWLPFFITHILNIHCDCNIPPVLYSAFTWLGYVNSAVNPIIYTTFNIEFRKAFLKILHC
T1 sequence (P50406 whole entry): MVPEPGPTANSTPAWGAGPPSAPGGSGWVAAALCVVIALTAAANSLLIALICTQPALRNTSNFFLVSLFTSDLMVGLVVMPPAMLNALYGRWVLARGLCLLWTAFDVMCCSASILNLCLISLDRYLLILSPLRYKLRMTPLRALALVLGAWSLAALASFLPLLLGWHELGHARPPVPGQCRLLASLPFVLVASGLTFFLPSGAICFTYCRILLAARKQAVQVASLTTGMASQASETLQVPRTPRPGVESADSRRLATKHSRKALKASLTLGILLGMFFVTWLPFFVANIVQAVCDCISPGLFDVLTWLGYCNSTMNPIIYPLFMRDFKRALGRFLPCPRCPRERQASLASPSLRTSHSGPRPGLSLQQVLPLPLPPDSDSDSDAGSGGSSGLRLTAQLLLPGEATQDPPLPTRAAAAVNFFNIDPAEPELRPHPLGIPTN

Take `Nc1cccc2c1C(=S)N(C1CCC(=O)NC1=O)C2=O` (stereo not shown) [3-MP, 3-Monothiopomalidomide]: in data set [1] (nanoformulated 3-MP stock stored in the dark at 4 °C, t=98 days, UV 254 nm, relative to t=0), the “area of the 3-MP peak, relative intensity” value is recorded as “below 90%”. In addition, the “stability of 3-MP nanosuspension” value in data set [1] (nanosuspension in Tween-80/water, 241 μM, 4 °C, 98-day period, LC–MS/MS) is on record as “time-dependently stable”. Further, the IC50 (in data set [2]; at κ-opioid receptor; at Serotonin 5-HT6 receptor; at Dopamine D2 receptor; at Dopamine D3 receptor) was above 10 µM each time.
